Among the targets are Cytochrome P450 2D6 (Homo sapiens, UniProt P10635); Cytochrome P450 2C9 (Homo sapiens, UniProt P11712); Cytochrome P450 3A4 (Homo sapiens, UniProt P08684).
Another assay deals with T1, Leucine aminopeptidase (Plasmodium falciparum 3D7, UniProt Q8IL11).
T1 sequence (Q8IL11 whole entry): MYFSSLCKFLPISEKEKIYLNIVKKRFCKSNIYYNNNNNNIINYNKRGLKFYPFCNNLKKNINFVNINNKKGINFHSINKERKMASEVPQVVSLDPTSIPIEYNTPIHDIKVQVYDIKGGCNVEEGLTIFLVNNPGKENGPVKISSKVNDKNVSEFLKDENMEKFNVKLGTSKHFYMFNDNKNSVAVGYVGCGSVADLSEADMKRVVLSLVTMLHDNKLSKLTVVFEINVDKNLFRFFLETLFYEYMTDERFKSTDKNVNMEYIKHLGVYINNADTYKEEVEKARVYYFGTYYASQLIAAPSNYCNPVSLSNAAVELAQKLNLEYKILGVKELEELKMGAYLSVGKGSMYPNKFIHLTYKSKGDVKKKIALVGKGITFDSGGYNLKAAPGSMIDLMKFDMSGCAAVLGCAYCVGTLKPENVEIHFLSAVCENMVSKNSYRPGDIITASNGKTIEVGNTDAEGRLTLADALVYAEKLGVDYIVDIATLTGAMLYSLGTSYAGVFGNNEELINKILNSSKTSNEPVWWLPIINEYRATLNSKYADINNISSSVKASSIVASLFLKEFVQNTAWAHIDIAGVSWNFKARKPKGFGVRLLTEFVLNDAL
Put plainly: P. falciparum M17LAP inhibitors, primary screen, biochemical, fluorogenic H-Leu-NHMec substrate, 1536-well (AID 1619). In kind it is functional.

Assay [1] is described as follows: intracellular Trypanosoma cruzi inhibitors in host cells – cell-based, plate reader, cherry-pick samples, set 3, dose response (AID 651818).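 Also: compounds incubated with infected cells for about four days.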 In kind it is functional.
Another assay deals with Paired box protein Pax-8 (Homo sapiens, UniProt Q06710). Description: inhibitors of PAX8-driven TPO luciferase reporter, dose response, RMG-I cells, cherry-pick (AID 687027).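 Also: luciferase reporter driven by Pax8 target thyroperoxidase promoter measured by SteadyGlo luminescence.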 In kind it is functional, cell-based.
Paired box protein Pax-8, sequence (Q06710 whole entry): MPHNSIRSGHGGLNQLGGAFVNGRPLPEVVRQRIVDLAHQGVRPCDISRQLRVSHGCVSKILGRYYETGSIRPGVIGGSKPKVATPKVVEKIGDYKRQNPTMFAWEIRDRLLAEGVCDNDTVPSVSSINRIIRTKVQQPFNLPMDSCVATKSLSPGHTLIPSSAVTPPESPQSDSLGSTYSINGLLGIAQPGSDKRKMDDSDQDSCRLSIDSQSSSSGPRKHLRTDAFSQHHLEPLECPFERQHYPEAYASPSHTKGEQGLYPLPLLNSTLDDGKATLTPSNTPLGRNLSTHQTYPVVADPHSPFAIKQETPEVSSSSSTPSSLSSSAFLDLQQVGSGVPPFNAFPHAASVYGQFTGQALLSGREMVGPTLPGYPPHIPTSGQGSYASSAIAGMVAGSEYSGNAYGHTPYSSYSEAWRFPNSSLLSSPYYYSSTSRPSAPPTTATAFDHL
Assay [2] in a line: NIH-3T3 fibroblast cytotoxicity, dose response, cytotoxicity control, cell-based, fluorescence, Alamar Blue, secondary assay (AID 2327).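 Also: NIH-3T3 mouse fibroblasts cultured with fluconazole at 8 µg/mL.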 In kind it is functional.
Assay [3] in a line: C. albicans growth with fluconazole, confirmation, fluorescence, retest (AID 2467). In kind it is functional, cell-based.
In the next assay the target is Prothrombin (Homo sapiens, UniProt P00734). Put plainly: Thrombin 1536 HTS Dose Response Confirmation. [Related pubchem assays: 1046 (Thrombin 1536 HTS; hits were confirmed in this assay)]. In kind it is functional.
Assay [4] addresses Luciferin 4-monooxygenase (Photinus pyralis, UniProt P08659). Put plainly: firefly luciferase enzyme inhibitors, dose response, biochemical, luminescence (AID 1891).
Assay [5] can be described thus: Luminescence Cell-Based Dose Confirmation HTS to Identify Inhibitors of Platelet Dense Granule Release. [Related pubchem assays: 1663 (Primary HTS), 1678 (Summary of Project)]. In kind it is functional.
Assay [6] can be described thus: cells. In kind it is functional, cell-based.
Assay [7] in a line: cells. The class given is functional, cell-based. The source holds these as a separate data set.
The test system of assay [8] is BJ. Description: cytotoxicity toward BJ-TERT-LT-ST fibroblasts, dose response, cell-based, RAS-independent, luminescence (AID 1935).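 Also: BJ fibroblasts immortalized with TERT plus LT and ST oncogenes.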 The class given is functional. Conditions: Homo sapiens.
The subject of assay [9] is BJ. Description: cells. Conditions: Homo sapiens. The class given is functional, cell-based.
Assay [10] concerns BJ. Put plainly: cytotoxicity toward BJ-TERT fibroblasts, dose response, cell-based, RAS-independent, luminescence (AID 1933). Conditions: Homo sapiens. In kind it is functional.
A short description of assay [11]: cytotoxicity toward DRD oncogenic fibroblasts, dose response, cell-based, non-viral oncogenic, luminescence (AID 1934). The class given is functional. Conditions: Homo sapiens.
Another assay addresses T2, Cytochrome P450 1A2 (Homo sapiens, UniProt P05177).
T2 sequence (P05177 whole entry): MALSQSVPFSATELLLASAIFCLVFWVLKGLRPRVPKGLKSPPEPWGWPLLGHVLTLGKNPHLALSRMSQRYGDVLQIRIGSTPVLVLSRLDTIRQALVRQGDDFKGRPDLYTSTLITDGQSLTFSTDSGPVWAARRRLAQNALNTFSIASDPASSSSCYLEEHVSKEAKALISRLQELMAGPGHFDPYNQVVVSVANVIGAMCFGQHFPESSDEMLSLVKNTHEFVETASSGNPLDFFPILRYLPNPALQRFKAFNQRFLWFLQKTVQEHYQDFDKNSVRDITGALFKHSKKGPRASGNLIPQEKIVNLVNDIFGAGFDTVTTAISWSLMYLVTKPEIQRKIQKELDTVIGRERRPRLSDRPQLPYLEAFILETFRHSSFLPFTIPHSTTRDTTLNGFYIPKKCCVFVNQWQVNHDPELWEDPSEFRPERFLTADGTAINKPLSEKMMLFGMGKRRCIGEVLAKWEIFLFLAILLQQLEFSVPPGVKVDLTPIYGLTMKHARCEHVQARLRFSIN

A further assay deals with Cytochrome P450 2C19 (Homo sapiens, UniProt P33261). Description: Cytochrome panel assay with activity outcomes. Panel member name: p450-cyp2c19 Compounds with AC50 equal or less than 10 uM are considered active. Conditions: read-out: AC50. The class given is functional.
Cytochrome P450 2C19, sequence (P33261 whole entry): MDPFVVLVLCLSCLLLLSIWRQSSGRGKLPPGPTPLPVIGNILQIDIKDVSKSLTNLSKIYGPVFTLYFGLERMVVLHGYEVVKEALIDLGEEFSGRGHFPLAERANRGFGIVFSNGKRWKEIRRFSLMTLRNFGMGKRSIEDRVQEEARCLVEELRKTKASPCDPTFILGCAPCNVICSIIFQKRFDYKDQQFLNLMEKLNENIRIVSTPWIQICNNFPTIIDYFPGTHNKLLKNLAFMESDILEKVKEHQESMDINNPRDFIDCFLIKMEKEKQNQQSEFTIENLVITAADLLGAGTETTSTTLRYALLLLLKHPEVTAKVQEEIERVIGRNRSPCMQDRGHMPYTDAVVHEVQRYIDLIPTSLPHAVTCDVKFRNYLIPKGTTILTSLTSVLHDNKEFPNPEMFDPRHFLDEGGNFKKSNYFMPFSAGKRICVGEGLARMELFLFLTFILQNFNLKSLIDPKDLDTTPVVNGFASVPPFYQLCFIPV
The nature of assay [12]: HEp-2 cell cytotoxicity, dose response, cytotoxicity control for RSV inhibitor project, HTS (AID 2410). In kind it is functional. Conditions: human respiratory syncytial virus.

The source made the active and inactive calls.

Luciferin 4-monooxygenase, sequence (P08659 whole entry): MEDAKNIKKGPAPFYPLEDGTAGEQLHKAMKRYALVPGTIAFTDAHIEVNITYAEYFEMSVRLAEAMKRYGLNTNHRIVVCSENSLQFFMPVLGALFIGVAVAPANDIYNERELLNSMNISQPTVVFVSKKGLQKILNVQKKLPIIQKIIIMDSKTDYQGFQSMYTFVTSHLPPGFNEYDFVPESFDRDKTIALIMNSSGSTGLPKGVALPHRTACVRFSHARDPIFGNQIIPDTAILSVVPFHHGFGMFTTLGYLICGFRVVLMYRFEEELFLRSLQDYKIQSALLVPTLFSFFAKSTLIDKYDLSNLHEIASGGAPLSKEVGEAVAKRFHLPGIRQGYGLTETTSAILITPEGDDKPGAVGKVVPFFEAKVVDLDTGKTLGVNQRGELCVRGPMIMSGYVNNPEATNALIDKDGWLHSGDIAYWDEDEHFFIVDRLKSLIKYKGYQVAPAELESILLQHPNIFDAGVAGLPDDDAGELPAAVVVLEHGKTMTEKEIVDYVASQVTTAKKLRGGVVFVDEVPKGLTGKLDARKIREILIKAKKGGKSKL
Cytochrome P450 2C9, sequence (P11712 whole entry): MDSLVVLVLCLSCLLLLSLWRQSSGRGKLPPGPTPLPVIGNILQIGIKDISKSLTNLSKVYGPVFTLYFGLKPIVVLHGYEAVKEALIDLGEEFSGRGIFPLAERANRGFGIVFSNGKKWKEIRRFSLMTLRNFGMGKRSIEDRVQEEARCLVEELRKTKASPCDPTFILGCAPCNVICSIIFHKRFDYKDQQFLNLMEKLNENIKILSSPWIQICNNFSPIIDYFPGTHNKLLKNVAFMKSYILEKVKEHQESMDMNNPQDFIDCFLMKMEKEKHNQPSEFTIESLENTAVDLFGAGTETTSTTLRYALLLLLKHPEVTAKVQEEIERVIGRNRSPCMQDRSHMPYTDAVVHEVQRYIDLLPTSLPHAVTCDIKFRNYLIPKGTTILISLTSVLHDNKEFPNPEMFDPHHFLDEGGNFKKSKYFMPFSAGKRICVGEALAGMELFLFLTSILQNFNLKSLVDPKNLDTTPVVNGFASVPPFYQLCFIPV
Cytochrome P450 3A4, sequence (P08684 whole entry): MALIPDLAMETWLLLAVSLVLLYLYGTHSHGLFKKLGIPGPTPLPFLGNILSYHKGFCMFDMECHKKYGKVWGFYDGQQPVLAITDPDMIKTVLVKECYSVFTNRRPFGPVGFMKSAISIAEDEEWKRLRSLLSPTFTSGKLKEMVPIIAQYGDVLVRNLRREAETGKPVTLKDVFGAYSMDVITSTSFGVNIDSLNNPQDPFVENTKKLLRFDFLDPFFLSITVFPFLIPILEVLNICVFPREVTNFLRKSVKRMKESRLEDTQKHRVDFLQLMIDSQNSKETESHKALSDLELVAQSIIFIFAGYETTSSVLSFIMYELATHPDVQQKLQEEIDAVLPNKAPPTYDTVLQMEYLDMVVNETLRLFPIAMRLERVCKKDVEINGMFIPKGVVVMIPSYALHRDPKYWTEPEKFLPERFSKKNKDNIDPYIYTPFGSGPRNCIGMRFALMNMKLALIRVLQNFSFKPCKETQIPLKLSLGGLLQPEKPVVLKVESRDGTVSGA
Cytochrome P450 2D6, sequence (P10635 whole entry): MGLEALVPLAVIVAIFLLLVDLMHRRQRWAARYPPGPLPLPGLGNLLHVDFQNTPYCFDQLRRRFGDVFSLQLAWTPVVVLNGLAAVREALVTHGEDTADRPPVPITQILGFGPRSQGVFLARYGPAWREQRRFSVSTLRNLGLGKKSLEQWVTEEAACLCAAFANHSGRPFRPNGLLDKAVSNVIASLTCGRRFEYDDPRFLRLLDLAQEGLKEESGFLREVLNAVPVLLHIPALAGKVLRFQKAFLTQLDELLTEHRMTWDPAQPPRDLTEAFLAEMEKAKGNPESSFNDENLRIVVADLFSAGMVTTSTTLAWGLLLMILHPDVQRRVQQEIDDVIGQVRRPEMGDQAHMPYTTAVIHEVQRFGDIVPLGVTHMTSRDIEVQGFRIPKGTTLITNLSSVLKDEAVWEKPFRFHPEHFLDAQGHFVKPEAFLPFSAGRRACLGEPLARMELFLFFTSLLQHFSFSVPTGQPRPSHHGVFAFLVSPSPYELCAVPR

For `Cc1cccc(NC(=O)CN2NS(=O)(=O)c3ccccc3C2=O)c1`, the IC50 at Leucine aminopeptidase was 7.74 µM (active).

Take `C[C@@H]1CN([C@H](C)CO)C(=O)Cc2cc(NC(=O)Nc3ccc(F)cc3)ccc2O[C@H]1CN(C)Cc1ccc(Cl)c(Cl)c1`: the AC50 is 4.44 µM (active) in assay [1] and 16.2 µM (active) at Paired box protein Pax-8. Turning to `Nc1nnnn1/N=C/c1cccc(Oc2ccccc2)c1`, the EC50 in [2] is > 150 µM (inactive); in assay [3] it was > 38 µM (not active).

In the case of `Cc1ccc(C(=O)n2ncn(C)c2=S)cc1`, on Prothrombin, the IC50 was 1.02 µM (active). For the compound `C[C@H](CO)N1C[C@H](C)[C@@H](CN(C)Cc2ccc(C(=O)Nc3ccccc3N)cc2)Oc2c(NC(=O)c3ccc(-c4nccs4)cc3)cccc2C1=O`, the AC50 in [1] was 2.85 µM (active). For `CCCOc1ccc(CNC(=O)c2ccc3c(c2)N(CC)CCS3)cc1`, the EC50 in assay [4] and in assay [5] was > 112 µM (not active) in each case. With `O=C(c1ccc(Cl)cc1)C1CCCN(Cc2ccc(Oc3ncccn3)cc2)C1` (stereo unspecified), the EC50 in assay [4] and in assay [5] was > 112 µM (not active) throughout.

In the case of `CCN(CC)S(=O)(=O)c1cccc(NC(=O)/C=C/c2cccc([N+](=O)[O-])c2)c1`, the IC50 on Prothrombin is > 50 µM (not active). Still for that read-out and setting: the result for `COc1ccc(CC(=O)n2nc(-c3ccccc3)nc2NCc2ccco2)cc1` reads 8.75 µM (active).

Consider `O=C(NNC(=S)NC(=O)c1ccccc1[N+](=O)[O-])c1ccc(Cl)cc1Cl`, for which the concentration giving a half-maximal response (EC50) in assay [2] was > 150 µM (inconclusive); in assay [3], 4.09 µM (active). Consider `Cc1ccnc(NS(=O)(=O)c2cc([N+](=O)[O-])ccc2C)c1`, for which the EC50 in the assay “cells [6]” and in the assay “cells [7]” was > 350 µM (not active) in each case. For the compound `COc1ccc(NC(=O)CSc2[nH]c(=O)cc(C)c2C#N)cc1OC`, the IC50 on Leucine aminopeptidase is 16.2 µM (active). In the case of `CCn1c(O)nnc1Sc1nc(C)nc2scc(-c3cccs3)c12`, the EC50 in assay [2] is > 160 µM (inactive); in [3] it was 0.163 µM (active). On the same counts, the results for `CC[C@@H]1C=CC=CC[C@H](C)[C@@H](O)[C@@H](C)C(=O)[C@H](C)[C@@H](O)[C@H](C)C(=O)[C@H](C)[C@@H](O)[C@H](C)C=CC(=O)O[C@H]2[C@@H](C)[C@@H](CC1)O[C@@]1(CC[C@@H](C)[C@@H](C[C@H](C)O)O1)[C@@H]2C` [OLIGOMYCIN C] are 15.6 µM (active) and 0.427 µM (active). For `CC(C)c1nnc(NC(=O)c2cnccn2)s1`, the 50% inhibitory concentration (IC50) on Prothrombin was > 50 µM (not active). Still for that read-out and setting: the result for `C#CCNc1cc(C)nc2ncnn12` reads > 50 µM (not active). Consider `CC(C)=CCSc1nnc([C@@H](N)Cc2c[nH]c3ccccc23)o1`, for which the EC50 in “cells [6]” and in the assay “cells [7]” was > 350 µM (not active) in each case. For `C[C@H]1CN([C@@H](C)CO)C(=O)c2cccc(NC(=O)c3cnccn3)c2O[C@@H]1CN(C)Cc1ccc(C(=O)Nc2ccccc2N)cc1`, the AC50 in [1] is 2.99 µM (active). `COc1ccc(CNc2nc(-c3cccnc3)nn2C(=O)C(C)C)cc1`: at Prothrombin, the IC50 was 0.167 µM (active). For `O=C(O)C1CCCCC1C(=O)Nc1ccc(Cl)cc1Cl` (stereo unspecified), the IC50 at Leucine aminopeptidase is 14.3 µM (active). Still for that read-out and setting: the result for `Cc1ccc(NC(=O)CN2C(=O)N/C(=C/c3ccco3)C2=O)cc1` reads 37.8 µM (active).

As for `C[C@@H](CO)NC(=O)c1ccc2c3n(nc2c1)-c1ccccc1CO3`, the EC50 in [4] is 16.4 µM (active); in assay [5] it was 6.93 µM (active). For the compound `O=C(CCN1C(=O)/C(=C/c2cccc(Br)c2)SC1=S)Nc1cccnc1`, the EC50 in the assay on BJ [8] was > 150 µM (not active); in the assay with BJ [9], > 150 µM (not active); in the assay on BJ [10], 7.86 µM (inconclusive); in assay [11], 18.7 µM (active). Turning to `CC(C)c1ccc(N(CC(=O)N/N=C/c2ccc(OC3CSC3)cc2)S(=O)(=O)c2ccccc2)cc1`, on Prothrombin, the IC50 was > 50 µM (not active). For `Cc1cc(S(=O)(=O)N2CCCCC2)ccc1OCC(=O)Nc1ccccc1`, the EC50 in [4] is > 112 µM (not active); in [5], 19.7 µM (active). With `O=C(CN1C(=O)c2ccccc2S1(=O)=O)Nc1ccccc1`, the AC50 at Cytochrome P450 2D6 was 17.8 µM (inconclusive); at Cytochrome P450 2C9, 12.6 µM (inconclusive). Moreover, the concentration for half-maximal inhibition (IC50) at Leucine aminopeptidase was 24.6 µM (active). Take `CSc1nc(-c2ccccc2)nn1C(=O)c1ccccc1`: the IC50 on Prothrombin was 0.896 µM (active). Moreover, the figures for the AC50 on Cytochrome P450 2C9, on Cytochrome P450 1A2 and on Cytochrome P450 2C19 were 10 µM (inconclusive), 2.51 µM (inconclusive) and 0.1 µM (inconclusive), respectively. Regarding `Cc1nn(-c2ccccc2)c(Cl)c1/C=N/NC(=O)c1[nH]ncc1Br`, the EC50 in assay [4] was 0.374 µM (active); in assay [5], 3.52 µM (active).

Turning to `CCOC(=O)CSc1n[nH]c(NC(=O)c2cccc(C)c2)n1`, the IC50 at Prothrombin is 0.586 µM (active). Also, the results for the AC50 at Cytochrome P450 2C9 and on Cytochrome P450 3A4 were 25.1 µM (inconclusive) and 5.62 µM (inconclusive), respectively. For the compound `Cc1ccc(S(=O)(=O)N2CC(C)N(C(=O)N3CCOCC3)C2C)cc1` (stereo unspecified), the EC50 in “cells [6]” and in “cells [7]” was > 350 µM (not active) in each case.

Take `C[C@H]1CN([C@@H](C)CO)C(=O)Cc2cc(NC(=O)Nc3ccc(C(F)(F)F)cc3)ccc2O[C@@H]1CN(C)Cc1ccc(-c2ccccc2)cc1`: in assay [1], the AC50 is 3.1 µM (active). For the compound `C[C@H]1CN([C@@H](C)CO)C(=O)c2cccc(NC(=O)C3CCCCC3)c2O[C@@H]1CN(C)Cc1ccc(Oc2ccccc2)cc1`, in [1], the AC50 was 4.77 µM (active). On to `Nc1n[nH]c(N)c1N=Nc1cccc(F)c1`, for which, at Leucine aminopeptidase, the IC50 is 5.51 µM (active). With `CCn1cc(C(=O)NCC(OC)OC)c(=O)c2cc(S(=O)(=O)N3CCC(C)CC3)ccc21`, the EC50 in “cells [6]” and in “cells [7]” was > 350 µM (not active) in each case. Further, the CC50 in assay [12] is 11.1 µM (active). For `Cc1ccc(C(=O)CSc2ccc(-c3ccncc3)nn2)cc1`, the EC50 in the assay “cells [6]” and in the assay “cells [7]” was > 350 µM (not active) in each case.

With `COc1ccc(S(=O)(=O)N(C)CC(=O)Nc2ccc3c(c2)OCO3)cc1OC`, the EC50 in assay [4] and in assay [5] was > 112 µM (not active) throughout. On to `Cc1ccc(C)c(OCC(=O)O/N=C(\N)c2cccc([N+](=O)[O-])c2)c1`, for which the concentration for a half-maximal effect (EC50) in the assay “cells [6]” and in “cells [7]” was > 350 µM (not active) throughout.

On to `Cc1ccc(S(=O)(=O)N(C)C[C@@H]2Oc3c(NC(=O)Nc4ccc(C(F)(F)F)cc4)cccc3C(=O)N([C@H](C)CO)C[C@@H]2C)cc1`, for which the AC50 in [1] was 5.16 µM (active). For `CC1COC(=O)C(NNc2ccc(Cl)c(Cl)c2)=N1` (stereo unspecified), the values for the EC50 in assay [2] and in assay [3] were > 160 µM (inactive) and 2.17 µM (active), respectively. As to `C[C@H]1CN([C@@H](C)CO)C(=O)c2cccc(NS(=O)(=O)c3ccc(F)cc3)c2O[C@H]1CN(C)Cc1ccc(C(=O)Nc2ccccc2N)cc1`, the AC50 in assay [1] was 3.43 µM (active).

Consider `CCOC(=O)C1CCN(/C=N/c2cc(C)on2)CC1`, for which the EC50 in assay [4] and in assay [5] was > 112 µM (not active) in each case.

The record behind these values is ChEMBL document CHEMBL1201862, “PubChem BioAssay data set” (2004).
